# Assay results from paper PMC10447287, “Optimisation of Pharmaceutical Cocrystal Dissolution Performance through a Synergistic Precipitation Inhibition” (Pharmaceutical Research, 2023).
# Columns and labels:
# Type in all cases: physicochemical
# [1] = Particle size distribution of sieved powders; conditions: sieved particles < 250 μm
# Experimental: All samples (i.e., FFA, FFA-NIC cocrystal and FFA-TP cocrystal) used in the dissolution tests were slightly ground by a mortar and pestle and sieved by a 60-mesh sieve (below 250 μm) to reduce the influence of particle size on the dissolution rates. The particle size distributions of the test samples were measured using a SYNC Analyzer (MICROTRAC Retsch GmbH, Hann, Germany). The particle size distributions (D10, D50, D90 and mean particle size) of the solid particles were compared. The data were analysed by the Microtrac FLEX software (12.0.0.1).
# [2] = Dissolution tests of powder mixtures of FFA-NIC cocrystal with polymers in PBS pH 6.8 (sink); conditions: for FFA DPP: reference neat cocrystal in PBS pH 6.8; for incongruent indicator k(t) (molar FFA/NIC in solution): PBS pH 6.8, sink conditions
# Experimental: (§1) Similarly, in vitro dissolution tests of the powder mixtures of 71.7 mg of the FFA-NIC cocrystals with an individual polymer or a combination in PBS pH 4.5 or PBS pH 6.8 were conducted in triplicate. The amount of a polymer used in the powder mixture was 80 mg of PVP-VA, 400 mg of PEG, or 80 mg of SLP, corresponding to their predissolved concentrations used in Section "Dissolution Tests of FFA, the Neat FFA-TP Cocrystal or FFA-NIC Cocrystal Powders in DDW in the Absence and Presence of a Predissolved Polymer or a Combination".
# (§2) DPP was used to evaluate the dissolution profile of the test powders in comparison to a reference system, which is defined as,4 DPP=AUCC(t)-AUCCR(t)/AUCCR(t)×100% where AUCC(t) is the area under the curve (AUC) of a dissolution profile C(t) , indicating the amount of drug dissolved is maintained over the period of the dissolution time from 0 to t, and AUCCR(t) is the AUC of a reference dissolution profile CR(t) .
# [3] = Dissolution tests of powders in DDW with predissolved polymer or combination (USP type II paddle); conditions: for incongruent indicator k(t) (molar FFA/NIC in solution): neat cocrystal
# Experimental: In vitro dissolution tests were performed with a USP type II paddle apparatus (DT 126 light, Erweka GmbH, Germany) at 37 ± 0.5°C with a paddle speed of 50 rpm in 400 mL of DDW in the absence and presence of a predissolved polymer (i.e., 0.2 mg/mL of PVP-VA, 1 mg/mL of PEG, 0.2 mg/mL of SLP) or a combination of two polymers (i.e., 0.2 mg/mL PVP-VA + 1 mg/mL PEG, […]).
# 71.7 mg of FFA-NIC cocrystal powders with the equivalent of 50 mg FFA I powders were used in each of the dissolution tests. Samples of 1 ± 0.1 mL were withdrawn from the dissolution vessel at the predefined time points of 5, 10, 15, 30, 60, 120, 180 and 240 min. The supernatant of each of the samples was separated from the excess solids by centrifugation at 13,000 RPM for 1 min in an MSE Micro Centaur. HPLC was used to determine the concentrations of FFA and NIC in solution. Solid residues obtained from the experiments were dried at room temperature and analysed by PXRD. All experiments were repeated in triplicate.
# For comparison, the above dissolution tests were also repeated using 50 mg of pure FFA I powders and 82.0 mg of FFA-TP cocrystal powders.
# as §2
# (§3) The solids were scanned by D2 phaser diffractometer (Bruker U.K. Limited, Coventry, UK) with […] radiation operating at voltage of 30 kV and current of 10 mA. The scanning angle ranged from 2°-40° of 2θ. The scanning time per step was 0.4 s. The scan step size was 0.02° of 2θ.
# [4] = Dissolution tests of powder mixtures of FFA-NIC cocrystal with polymers in PBS pH 4.5 (non-sink); conditions: for incongruent indicator k(t) (molar FFA/NIC in solution): PBS pH 4.5, neat cocrystal; for FFA DPP: reference neat cocrystal in PBS pH 4.5
# Experimental: as §1, with “[…],” for “The amount of a polymer used in the powder mixture was 80 mg of PVP-VA,”, “[…],” for “or 80 mg of SLP,”
# The solid residues obtained from the experiments in PBS pH 4.5 were dried at room temperature and analysed by PXRD.
# as §2, §3
# [5] = DDW, combination of predissolved PVP-VA and PEG
# [6] = DDW, no polymer, powder dissolution
smiles,measurement,setting,value
NC(=O)c1cccnc1.O=C(O)c1ccccc1Nc1cccc(C(F)(F)F)c1 [FFA-NIC cocrystal],D10,[1],6.08 μm
same,D50,[1],13.77 μm
same,D90,[1],33.97 μm
same,Mean particle size,[1],17.63 μm
same,solid residues after dissolution,"[2]; PBS pH 6.8, 37°C, after 4 h",no solid residue
same,FFA DPP,"[2]; PBS pH 6.8, powder mixture with PVP-VA (0.2 mg/mL)",11%
same,FFA DPP,"[2]; PBS pH 6.8, powder mixture with PVP-VA (0.4 mg/mL)",7%
same,incongruent constant k(t),"[2]; PBS pH 6.8, powder mixture with PVP-VA, at 60 min",> 0.94
same,FFA DPP,"[2]; PBS pH 6.8, powder mixture with SLP (0.1 mg/mL) + PVP-VA (0.4 mg/mL)",8%
same,FFA DPP,"[2]; PBS pH 6.8, powder mixture with SLP (0.2 mg/mL) + PVP-VA (0.2 mg/mL)",6%
same,FFA DPP,"[2]; PBS pH 6.8, powder mixture with SLP (0.2 mg/mL) + PVP-VA (0.4 mg/mL)",9%
same,FFA DPP,"[2]; PBS pH 6.8, powder mixture with SLP (0.2 mg/mL)",-0.1%
same,incongruent indicator k(t) (molar FFA/NIC in solution),[2]; at 5 min,0.75
same,incongruent indicator k(t) (molar FFA/NIC in solution),[2]; at the end of dissolution,0.94
same,solid residues after dissolution tests (PXRD),[3]; DDW in the absence or presence of predissolved polymers,FFA III
same,FFA concentration at 240 min,[3]; [5],11.44 µg/mL
same,maximum FFA concentration,[3]; [5],14.28 µg/mL
same,time to generate supersaturated state of FFA concentration,[3]; [5],≤ 5 min
same,solid residues after dissolution tests (PXRD),"[3]; DDW, combinations of predissolved PVP-VA and SLP at various concentrations except SLP (0.2 mg/mL) + PVP-VA (0.8 mg/mL)",FFA III alone
same,incongruent indicator k(t) (molar FFA/NIC in solution),"[3]; DDW, at 5 min",0.06
same,incongruent indicator k(t) (molar FFA/NIC in solution),"[3]; DDW, at 60 min",0.08
same,FFA concentration reached within 60 min,[3]; [6],10.23 µg/mL
same,"FFA concentration, constant level after 60 min",[3]; [6],10.78 µg/mL
same,time for FFA concentration to reach aqueous equilibrium solubility,"[3]; DDW, predissolved 0.2 mg/mL PVP-VA",≤ 15 min
same,maximum FFA concentration,"[3]; DDW, predissolved 0.2 mg/mL PVP-VA, at 60 min",12.93 µg/mL
same,FFA DPP (dissolution performance parameter),"[3]; DDW, predissolved PEG (1 mg/mL), 0-4 h, reference same powder in DDW",-7%
same,FFA DPP (dissolution performance parameter),"[3]; DDW, predissolved PVP-VA (0.2 mg/mL), 0-4 h, reference same powder in DDW",19%
same,NIC release from cocrystal powders,"[3]; DDW, predissolved PVP-VA or its combination with PEG or SLP",released completely
same,FFA concentration in solution after 4 h,"[3]; DDW, predissolved SLP (0.2 mg/mL)",26.18 µg/mL
same,FFA DPP (dissolution performance parameter),"[3]; DDW, predissolved SLP (0.2 mg/mL) + PVP-VA (0.1 mg/mL), reference DDW",112%
same,FFA DPP (dissolution performance parameter),"[3]; DDW, predissolved SLP (0.2 mg/mL) + PVP-VA (0.2 mg/mL), 0-4 h, reference same powder in DDW",160%
same,FFA DPP (dissolution performance parameter),"[3]; DDW, predissolved SLP (0.2 mg/mL) + PVP-VA (0.3 mg/mL), reference DDW",296%
same,FFA DPP (dissolution performance parameter),"[3]; DDW, predissolved SLP (0.2 mg/mL) + PVP-VA (0.4 mg/mL), reference DDW",345%
same,FFA DPP (dissolution performance parameter),"[3]; DDW, predissolved SLP (0.2 mg/mL) + PVP-VA (0.8 mg/mL), reference DDW",310%
same,solid residues after dissolution tests (PXRD),"[3]; DDW, predissolved SLP (0.2 mg/mL) and PVP-VA (0.8 mg/mL)",mixtures of FFA III and FFA-NIC cocrystal
same,FFA DPP (dissolution performance parameter),"[3]; DDW, predissolved SLP (0.2 mg/mL), 0-4 h, reference same powder in DDW",67%
same,NIC release from cocrystal powders,"[3]; DDW, single polymer of PEG or SLP",not complete
same,solid residues after dissolution tests (PXRD),[3]; SLP predissolved DDW,both FFA III and FFA-NIC cocrystal
same,solid residues after dissolution tests (PXRD),"[4]; PBS pH 4.5, groups SLP (0.1 mg/mL) + PVP-VA (0.4 mg/mL) and SLP (0.2 mg/mL) + PVP-VA (0.8 mg/mL)",FFA-NIC cocrystals were also found in the solid residues
same,incongruent indicator k(t) (molar FFA/NIC in solution),[4]; at 5 min,0.03
same,incongruent indicator k(t) (molar FFA/NIC in solution),[4]; at 60 min,0.07
same,FFA DPP,"[4]; PBS pH 4.5, powder mixture with PEG (1 mg/mL) + PVP-VA (0.2 mg/mL)",36%
same,FFA DPP,"[4]; PBS pH 4.5, powder mixture with PEG (1 mg/mL)",11%
same,FFA concentration at the end of the test,"[4]; PBS pH 4.5, powder mixture with PVP-VA",17.38 µg/mL
same,FFA DPP,"[4]; PBS pH 4.5, powder mixture with PVP-VA (0.2 mg/mL)",92%
same,maximum supersaturated FFA concentration,"[4]; PBS pH 4.5, powder mixture with PVP-VA, at 60 min",19.65 µg/mL
same,FFA DPP,"[4]; PBS pH 4.5, powder mixture with SLP (0.1 mg/mL) + PVP-VA (0.4 mg/mL)",150%
same,FFA DPP,"[4]; PBS pH 4.5, powder mixture with SLP (0.2 mg/mL) + PVP-VA (0.2 mg/mL)",159%
same,FFA DPP,"[4]; PBS pH 4.5, powder mixture with SLP (0.2 mg/mL) + PVP-VA (0.4 mg/mL)",179%
same,FFA DPP,"[4]; PBS pH 4.5, powder mixture with SLP (0.2 mg/mL) + PVP-VA (0.8 mg/mL)",204%
same,FFA DPP,"[4]; PBS pH 4.5, powder mixture with SLP (0.2 mg/mL)",2%
same,solid residues after dissolution tests (PXRD),[4]; all dissolution tests in PBS pH 4.5,FFA III solids were crystallised
